Measurements taken from ChEMBL document CHEMBL1201862, “PubChem BioAssay data set” (2004).
Activity calls are given as the source filed them.

Experiments:
[1] = biological target: T1, Alkaline phosphatase, tissue-nonspecific isozyme (Homo sapiens, UniProt P05186)
T1 sequence (P05186 whole entry): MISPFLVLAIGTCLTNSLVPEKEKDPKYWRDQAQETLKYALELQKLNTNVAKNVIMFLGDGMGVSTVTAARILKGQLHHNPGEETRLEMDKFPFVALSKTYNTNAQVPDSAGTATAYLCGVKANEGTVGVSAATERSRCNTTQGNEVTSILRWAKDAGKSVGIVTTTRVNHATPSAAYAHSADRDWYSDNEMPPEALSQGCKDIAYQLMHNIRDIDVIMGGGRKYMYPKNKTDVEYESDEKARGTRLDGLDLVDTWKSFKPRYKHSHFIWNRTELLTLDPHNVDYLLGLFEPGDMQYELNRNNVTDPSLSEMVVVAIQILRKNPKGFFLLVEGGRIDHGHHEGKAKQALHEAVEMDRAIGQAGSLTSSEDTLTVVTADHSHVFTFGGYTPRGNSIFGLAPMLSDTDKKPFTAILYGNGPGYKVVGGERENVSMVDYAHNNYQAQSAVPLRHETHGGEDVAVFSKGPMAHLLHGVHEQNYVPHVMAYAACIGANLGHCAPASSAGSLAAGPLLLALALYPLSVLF

HEK293 [2] = test: cells; type: functional, cell-based; conditions: Homo sapiens
HEK293 [3] = test: NOD2 signaling inhibitors in MDP-stimulated cells, cell-based, uHTS, luminescence (AID 2001); type: functional; conditions: Homo sapiens
HEK293 [4] = test: cells; conditions: Homo sapiens
HEK293 [5] = test: NOD1 signaling inhibitors, primary screen, cell-based, luminescence, uHTS (AID 1578); type: functional; conditions: Homo sapiens
[6] = biological target: T2, Nucleotide-binding oligomerization domain-containing protein 1 (Homo sapiens, UniProt Q9Y239); test: NOD1 signaling inhibitors, SAR follow-up, revised (AID 2333); type: functional
T2 sequence (Q9Y239 whole entry): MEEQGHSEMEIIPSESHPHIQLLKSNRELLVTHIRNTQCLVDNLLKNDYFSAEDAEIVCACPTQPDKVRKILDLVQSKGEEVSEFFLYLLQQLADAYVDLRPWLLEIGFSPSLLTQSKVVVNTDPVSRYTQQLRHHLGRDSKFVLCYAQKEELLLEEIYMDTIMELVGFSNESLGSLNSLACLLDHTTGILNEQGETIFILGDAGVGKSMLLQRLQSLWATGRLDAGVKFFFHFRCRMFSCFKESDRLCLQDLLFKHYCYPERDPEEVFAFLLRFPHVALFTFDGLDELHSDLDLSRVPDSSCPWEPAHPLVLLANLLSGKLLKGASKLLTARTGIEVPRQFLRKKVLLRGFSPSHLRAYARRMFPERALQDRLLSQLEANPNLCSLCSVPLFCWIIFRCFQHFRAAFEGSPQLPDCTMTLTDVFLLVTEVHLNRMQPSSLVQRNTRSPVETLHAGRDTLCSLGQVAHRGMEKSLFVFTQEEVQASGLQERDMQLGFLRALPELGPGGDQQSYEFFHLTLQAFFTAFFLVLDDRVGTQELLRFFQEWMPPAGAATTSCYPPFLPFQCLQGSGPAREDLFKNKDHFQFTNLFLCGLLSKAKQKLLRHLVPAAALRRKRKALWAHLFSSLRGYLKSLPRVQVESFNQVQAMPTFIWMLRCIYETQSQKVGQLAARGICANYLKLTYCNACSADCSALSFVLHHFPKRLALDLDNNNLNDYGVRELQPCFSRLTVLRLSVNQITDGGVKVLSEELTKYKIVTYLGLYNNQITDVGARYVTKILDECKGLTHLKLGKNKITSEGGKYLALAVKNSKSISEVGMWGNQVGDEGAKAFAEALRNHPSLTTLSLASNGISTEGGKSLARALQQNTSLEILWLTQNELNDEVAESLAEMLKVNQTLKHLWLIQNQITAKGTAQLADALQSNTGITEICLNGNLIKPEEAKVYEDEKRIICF

HEK293 [7] = test: cells; type: functional, cell-based; conditions: Homo sapiens; remark: listed apart in the source
[8] = biological target: Nucleotide-binding oligomerization domain-containing protein 2 (Homo sapiens, UniProt Q9HC29); test: PubChem AID 2334; type: functional
Tumor necrosis factor = Tumor necrosis factor (Homo sapiens, UniProt P01375); test: TNFa-triggered NF-kB activation inhibitors, SAR follow-up, cell-based, revised (AID 2337); type: functional
Estrogen receptor = biological target: T3, Estrogen receptor (Homo sapiens, UniProt P03372); test: potentiators of ERα–SRC-1 coactivator binding, dose response, biochemical, TR-FRET, ERα LBD (AID 737)
T3 sequence (P03372 whole entry): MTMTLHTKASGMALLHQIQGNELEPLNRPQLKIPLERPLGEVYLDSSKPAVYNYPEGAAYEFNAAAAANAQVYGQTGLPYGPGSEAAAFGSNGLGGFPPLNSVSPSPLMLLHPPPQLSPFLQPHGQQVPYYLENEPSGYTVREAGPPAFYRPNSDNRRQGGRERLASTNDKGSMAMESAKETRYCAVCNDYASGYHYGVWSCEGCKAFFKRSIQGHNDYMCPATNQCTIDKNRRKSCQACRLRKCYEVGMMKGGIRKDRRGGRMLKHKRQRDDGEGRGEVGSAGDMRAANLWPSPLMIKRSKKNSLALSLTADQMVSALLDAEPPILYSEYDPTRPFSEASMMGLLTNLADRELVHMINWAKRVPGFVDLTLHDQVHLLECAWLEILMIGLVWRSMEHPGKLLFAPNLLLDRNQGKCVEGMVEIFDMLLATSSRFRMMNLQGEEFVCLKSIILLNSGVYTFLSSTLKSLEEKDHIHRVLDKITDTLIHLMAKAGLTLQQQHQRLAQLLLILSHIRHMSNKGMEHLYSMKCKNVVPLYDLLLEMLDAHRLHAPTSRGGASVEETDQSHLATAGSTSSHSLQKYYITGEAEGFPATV

[9] = biological target: Polyadenylate-binding protein 1 (Homo sapiens, UniProt P11940); test: PABP poly(A) RNA binding inhibitors, primary screen, biochemical, fluorescence polarization, uHTS (AID 2014)
[10] = biological target: Eukaryotic translation initiation factor 4H (Homo sapiens, UniProt Q15056); test: human eIF4H binding inhibitors, primary screen, translation initiation inhibitor project, biochemical, uHTS, fluorescence polarization (AID 2012)
Protein Tat = biological target: T4, Protein Tat (Human immunodeficiency virus type 1 group M subtype B (isolate HXB2)(HIV-1), UniProt P04608); type: functional;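 further: tat binding to TAR RNA read out by fluorescence polarization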
T4 sequence (P04608 whole entry): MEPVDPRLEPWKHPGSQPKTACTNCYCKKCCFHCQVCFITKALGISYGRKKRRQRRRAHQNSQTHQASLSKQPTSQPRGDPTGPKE

[11] = THP-1 cell cytotoxicity, dose response, cytotoxicity control for Vif-APOBEC3G degradation inhibitor project, THP-1 cells (AID 1117359); type: functional; conditions: Human immunodeficiency virus 1, THP-1
[12] = microbe, parasite or virus in culture; type: functional; conditions: Mycobacterium tuberculosis
[13] = A High Throughput Confirmatory Assay used to Identify Novel Compounds that Inhibit Mycobacterium Tuberculosis in the absence of Glycerol.; type: functional
Aminopeptidase N = Aminopeptidase N (Plasmodium falciparum FcB1/Columbia, UniProt O96935); test: P. falciparum M1AAP inhibitors, biochemical, fluorogenic H-Leu-NHMec substrate, 1536-well (AID 1445); design: species or system Plasmodium falciparum 3D7, 3D7
Streptococcus = test: Group A Streptococcus viability loss, dose response, counter-screen for streptokinase expression inhibitor project, luminescence, BacTiterGlo (AID 1915); type: functional, organism-based;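 further: potency for reduction of bacterial viability or growth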
[14] = test system: Streptococcus sp. 'group A'; test: growth inhibition of control SK(-) GAS strain, dose response, counter-screen for streptokinase expression inhibitor project, luminescence, kanamycin, BacTiterGlo, confirmation (AID 1900); type: functional, organism-based
Genome polyprotein = Genome polyprotein (dengue virus type 2, UniProt P29990); test: Dengue-2 NS5 methyltransferase inhibitors, primary screen, biochemical, confirmation dose response (AID 588689); type: functional
Hexokinase HKDC1 = Hexokinase HKDC1 (Homo sapiens, UniProt Q2TB90); test: HKDC1 hexokinase inhibitors, dose response, biochemical, W721R variant (AID 504729); type: functional
[15] = biological target: T5, Corticotropin-releasing factor receptor 2/Corticotropin-releasing factor-binding protein (Homo sapiens, UniProt P24387+Q13324); test: activators of CRF receptor 2 with binding protein – uHTS hits, confirmation (AID 602473); type: functional; conditions: read-out: EC50_Mean
T5 sequence (Q13324 whole entry): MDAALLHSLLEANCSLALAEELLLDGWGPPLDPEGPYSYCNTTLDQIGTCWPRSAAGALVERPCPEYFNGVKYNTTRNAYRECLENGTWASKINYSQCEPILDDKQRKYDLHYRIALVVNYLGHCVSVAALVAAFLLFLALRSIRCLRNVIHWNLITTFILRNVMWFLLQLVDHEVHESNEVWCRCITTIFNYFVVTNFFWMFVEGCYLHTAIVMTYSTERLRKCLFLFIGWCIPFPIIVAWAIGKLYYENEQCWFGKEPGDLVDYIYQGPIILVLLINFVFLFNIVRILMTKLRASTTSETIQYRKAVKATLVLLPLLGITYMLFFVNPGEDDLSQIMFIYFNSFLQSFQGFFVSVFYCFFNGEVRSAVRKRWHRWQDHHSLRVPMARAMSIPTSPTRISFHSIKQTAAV
T5 sequence (P24387 whole entry): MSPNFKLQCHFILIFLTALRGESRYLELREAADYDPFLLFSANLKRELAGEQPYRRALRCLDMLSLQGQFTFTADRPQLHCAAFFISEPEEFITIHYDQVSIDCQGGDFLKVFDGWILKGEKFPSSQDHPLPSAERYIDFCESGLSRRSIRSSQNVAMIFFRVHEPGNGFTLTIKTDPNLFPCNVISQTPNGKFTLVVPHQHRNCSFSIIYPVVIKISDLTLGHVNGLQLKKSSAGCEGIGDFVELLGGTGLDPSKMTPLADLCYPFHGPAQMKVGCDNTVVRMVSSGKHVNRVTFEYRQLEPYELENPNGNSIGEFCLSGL

Vero = Vero cell cytotoxicity, cytotoxicity control for flavivirus capping enzyme inhibitors (AID 588742); type: functional; conditions: Chlorocebus sabaeus
[16] = biological target: T6, Heat shock factor protein 1 (Mus musculus, UniProt P38532); test: inhibition of MG132-induced HSE-luciferase signal, confirmation, cell-based, NIH3T3, luminescence, dose retest (AID 2382); type: functional;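 further: NIH3T3 fibroblasts with HSF1-driven luciferase reporter stressed by proteasome inhibitor MG132; luminescence from HSF1-driven luciferase expression after 8 hours of MG132 stress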
T6 sequence (P38532 whole entry): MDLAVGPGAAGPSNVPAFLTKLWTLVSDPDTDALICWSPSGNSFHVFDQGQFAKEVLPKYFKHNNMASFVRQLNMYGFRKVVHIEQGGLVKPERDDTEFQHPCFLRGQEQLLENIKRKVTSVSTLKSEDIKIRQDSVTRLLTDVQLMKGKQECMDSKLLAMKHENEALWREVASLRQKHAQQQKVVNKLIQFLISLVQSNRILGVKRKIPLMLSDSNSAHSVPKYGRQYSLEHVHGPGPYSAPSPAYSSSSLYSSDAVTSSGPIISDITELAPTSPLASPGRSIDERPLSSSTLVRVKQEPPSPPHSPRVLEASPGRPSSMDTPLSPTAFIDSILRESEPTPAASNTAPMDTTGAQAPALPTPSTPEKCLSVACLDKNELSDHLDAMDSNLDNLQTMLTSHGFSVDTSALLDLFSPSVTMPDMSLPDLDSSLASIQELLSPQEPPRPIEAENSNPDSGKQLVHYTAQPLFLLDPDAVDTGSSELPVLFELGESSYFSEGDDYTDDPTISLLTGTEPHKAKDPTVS

Polyadenylate-binding protein 1, sequence (P11940 whole entry): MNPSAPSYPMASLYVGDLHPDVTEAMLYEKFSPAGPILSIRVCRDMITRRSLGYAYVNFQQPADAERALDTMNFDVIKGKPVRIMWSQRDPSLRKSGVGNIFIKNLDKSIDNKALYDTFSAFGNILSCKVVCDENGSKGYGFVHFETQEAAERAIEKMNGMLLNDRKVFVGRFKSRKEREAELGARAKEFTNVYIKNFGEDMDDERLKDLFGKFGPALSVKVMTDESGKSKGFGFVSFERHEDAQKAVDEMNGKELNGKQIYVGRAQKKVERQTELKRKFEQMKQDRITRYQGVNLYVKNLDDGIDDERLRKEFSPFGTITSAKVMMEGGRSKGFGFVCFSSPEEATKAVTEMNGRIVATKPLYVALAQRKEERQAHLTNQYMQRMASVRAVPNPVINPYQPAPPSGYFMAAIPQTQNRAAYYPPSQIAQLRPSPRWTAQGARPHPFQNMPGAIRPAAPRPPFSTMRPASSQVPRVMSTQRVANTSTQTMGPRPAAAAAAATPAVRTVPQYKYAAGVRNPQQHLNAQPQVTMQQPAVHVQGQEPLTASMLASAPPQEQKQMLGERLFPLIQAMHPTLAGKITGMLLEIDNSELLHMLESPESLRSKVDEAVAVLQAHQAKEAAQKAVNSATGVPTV
Tumor necrosis factor, sequence (P01375 whole entry, the tested form may be a part): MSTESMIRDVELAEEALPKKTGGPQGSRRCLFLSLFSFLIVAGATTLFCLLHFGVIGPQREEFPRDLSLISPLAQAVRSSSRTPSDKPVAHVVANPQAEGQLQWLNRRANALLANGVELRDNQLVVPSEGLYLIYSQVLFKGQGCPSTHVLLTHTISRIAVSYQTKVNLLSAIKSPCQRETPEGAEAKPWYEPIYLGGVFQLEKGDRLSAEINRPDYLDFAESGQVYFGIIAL
Nucleotide-binding oligomerization domain-containing protein 2, sequence (Q9HC29 whole entry, the tested form may be a part): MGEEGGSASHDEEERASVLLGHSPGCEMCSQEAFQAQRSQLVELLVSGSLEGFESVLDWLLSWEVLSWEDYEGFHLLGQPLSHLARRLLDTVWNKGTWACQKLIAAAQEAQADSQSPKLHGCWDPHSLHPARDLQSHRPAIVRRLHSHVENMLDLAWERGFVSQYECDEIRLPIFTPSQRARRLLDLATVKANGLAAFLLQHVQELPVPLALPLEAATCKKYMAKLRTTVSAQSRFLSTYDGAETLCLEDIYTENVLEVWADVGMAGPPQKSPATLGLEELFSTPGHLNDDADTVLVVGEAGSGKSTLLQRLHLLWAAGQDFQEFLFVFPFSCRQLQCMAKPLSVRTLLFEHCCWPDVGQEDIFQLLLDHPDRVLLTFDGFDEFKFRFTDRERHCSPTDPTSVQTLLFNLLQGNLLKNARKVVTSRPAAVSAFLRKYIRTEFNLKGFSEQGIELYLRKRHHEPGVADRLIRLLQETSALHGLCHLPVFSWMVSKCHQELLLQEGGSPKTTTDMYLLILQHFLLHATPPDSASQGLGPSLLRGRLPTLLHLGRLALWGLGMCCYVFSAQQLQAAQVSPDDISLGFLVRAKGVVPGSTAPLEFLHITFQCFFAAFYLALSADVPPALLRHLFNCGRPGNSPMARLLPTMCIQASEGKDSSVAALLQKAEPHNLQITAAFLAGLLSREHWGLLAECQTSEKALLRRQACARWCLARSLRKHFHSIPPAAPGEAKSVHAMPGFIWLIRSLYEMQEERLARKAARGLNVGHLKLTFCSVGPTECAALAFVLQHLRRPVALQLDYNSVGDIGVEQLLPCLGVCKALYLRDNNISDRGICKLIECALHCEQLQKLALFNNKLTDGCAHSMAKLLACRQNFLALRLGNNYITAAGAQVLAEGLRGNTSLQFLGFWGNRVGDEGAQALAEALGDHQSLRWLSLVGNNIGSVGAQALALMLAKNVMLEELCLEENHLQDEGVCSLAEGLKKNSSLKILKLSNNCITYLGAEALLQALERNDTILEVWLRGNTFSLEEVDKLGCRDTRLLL
Aminopeptidase N, sequence (O96935 whole entry): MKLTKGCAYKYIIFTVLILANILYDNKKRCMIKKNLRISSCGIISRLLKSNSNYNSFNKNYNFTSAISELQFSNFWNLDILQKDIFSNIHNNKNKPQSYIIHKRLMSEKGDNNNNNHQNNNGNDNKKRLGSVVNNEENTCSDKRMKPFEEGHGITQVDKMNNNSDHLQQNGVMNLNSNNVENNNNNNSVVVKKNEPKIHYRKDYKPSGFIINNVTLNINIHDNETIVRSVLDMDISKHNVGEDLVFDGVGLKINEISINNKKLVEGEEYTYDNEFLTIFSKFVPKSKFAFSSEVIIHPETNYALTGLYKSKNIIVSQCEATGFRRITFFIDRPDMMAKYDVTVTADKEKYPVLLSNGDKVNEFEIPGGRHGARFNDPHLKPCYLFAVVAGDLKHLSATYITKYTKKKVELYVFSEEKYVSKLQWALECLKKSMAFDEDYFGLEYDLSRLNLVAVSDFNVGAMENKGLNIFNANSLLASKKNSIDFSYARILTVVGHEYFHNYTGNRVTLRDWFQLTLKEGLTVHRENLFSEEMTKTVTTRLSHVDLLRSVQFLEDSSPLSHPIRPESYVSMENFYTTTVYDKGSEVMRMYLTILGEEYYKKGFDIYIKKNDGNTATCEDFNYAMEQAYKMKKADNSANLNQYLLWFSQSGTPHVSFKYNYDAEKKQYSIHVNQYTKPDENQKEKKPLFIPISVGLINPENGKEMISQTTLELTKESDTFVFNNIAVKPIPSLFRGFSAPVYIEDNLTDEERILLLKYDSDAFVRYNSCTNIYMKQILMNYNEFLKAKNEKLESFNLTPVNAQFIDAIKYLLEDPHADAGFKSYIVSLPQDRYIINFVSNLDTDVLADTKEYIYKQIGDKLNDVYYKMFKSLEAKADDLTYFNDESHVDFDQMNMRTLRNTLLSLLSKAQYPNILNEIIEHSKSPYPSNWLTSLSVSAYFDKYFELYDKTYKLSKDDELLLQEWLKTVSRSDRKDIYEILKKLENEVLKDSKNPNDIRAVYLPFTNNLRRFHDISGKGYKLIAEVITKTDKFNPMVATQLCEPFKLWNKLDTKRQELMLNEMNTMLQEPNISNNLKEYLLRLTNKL
Hexokinase HKDC1, sequence (Q2TB90 whole entry): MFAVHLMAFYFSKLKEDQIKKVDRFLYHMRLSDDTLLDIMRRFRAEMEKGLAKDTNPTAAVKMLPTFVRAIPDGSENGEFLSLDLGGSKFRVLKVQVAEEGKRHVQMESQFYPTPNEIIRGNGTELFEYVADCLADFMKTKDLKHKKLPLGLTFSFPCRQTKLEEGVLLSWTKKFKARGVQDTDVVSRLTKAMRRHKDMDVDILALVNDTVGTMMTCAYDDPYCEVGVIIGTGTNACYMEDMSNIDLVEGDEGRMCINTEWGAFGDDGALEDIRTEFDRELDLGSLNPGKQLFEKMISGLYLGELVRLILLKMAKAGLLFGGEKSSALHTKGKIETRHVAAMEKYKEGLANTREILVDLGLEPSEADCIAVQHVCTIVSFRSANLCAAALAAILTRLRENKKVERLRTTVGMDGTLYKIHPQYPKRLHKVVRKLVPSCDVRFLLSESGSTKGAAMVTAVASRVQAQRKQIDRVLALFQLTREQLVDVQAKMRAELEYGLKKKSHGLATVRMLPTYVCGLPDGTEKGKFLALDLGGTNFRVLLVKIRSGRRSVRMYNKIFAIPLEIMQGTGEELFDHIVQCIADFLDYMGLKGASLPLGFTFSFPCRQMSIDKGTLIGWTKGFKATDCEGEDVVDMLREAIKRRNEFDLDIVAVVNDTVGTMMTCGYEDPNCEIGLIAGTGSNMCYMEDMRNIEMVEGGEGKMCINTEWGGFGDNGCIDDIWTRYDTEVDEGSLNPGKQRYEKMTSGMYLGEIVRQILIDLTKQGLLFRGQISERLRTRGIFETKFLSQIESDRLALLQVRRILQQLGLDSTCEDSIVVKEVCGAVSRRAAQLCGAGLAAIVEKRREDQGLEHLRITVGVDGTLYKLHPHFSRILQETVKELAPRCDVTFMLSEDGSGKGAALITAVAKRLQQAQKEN
Genome polyprotein, sequence (P29990 2492-3391 limits assumed): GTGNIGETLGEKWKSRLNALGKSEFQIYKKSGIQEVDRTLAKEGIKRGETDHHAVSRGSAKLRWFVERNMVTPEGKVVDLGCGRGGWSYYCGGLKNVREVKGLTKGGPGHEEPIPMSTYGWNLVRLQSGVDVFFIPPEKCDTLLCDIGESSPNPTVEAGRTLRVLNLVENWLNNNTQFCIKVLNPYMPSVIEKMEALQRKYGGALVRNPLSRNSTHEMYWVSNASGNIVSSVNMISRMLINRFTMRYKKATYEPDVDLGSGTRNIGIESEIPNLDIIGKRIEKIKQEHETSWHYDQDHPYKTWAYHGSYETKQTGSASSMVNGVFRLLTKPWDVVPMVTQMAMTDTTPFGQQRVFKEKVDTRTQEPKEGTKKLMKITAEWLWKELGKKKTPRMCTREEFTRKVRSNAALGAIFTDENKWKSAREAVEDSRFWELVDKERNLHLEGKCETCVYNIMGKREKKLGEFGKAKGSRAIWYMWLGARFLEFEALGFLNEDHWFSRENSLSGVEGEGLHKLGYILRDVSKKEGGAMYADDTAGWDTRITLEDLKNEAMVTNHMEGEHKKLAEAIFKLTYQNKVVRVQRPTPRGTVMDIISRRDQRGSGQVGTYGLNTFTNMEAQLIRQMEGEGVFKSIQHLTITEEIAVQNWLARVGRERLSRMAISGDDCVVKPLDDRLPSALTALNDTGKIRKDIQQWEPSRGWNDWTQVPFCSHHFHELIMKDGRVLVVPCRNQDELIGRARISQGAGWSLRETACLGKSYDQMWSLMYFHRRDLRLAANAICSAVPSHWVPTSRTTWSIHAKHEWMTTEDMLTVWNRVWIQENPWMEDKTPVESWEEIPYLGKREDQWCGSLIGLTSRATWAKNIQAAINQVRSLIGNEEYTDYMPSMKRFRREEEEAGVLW

For `O=C(Nc1ccccc1-c1ccccc1)NC1CC2CCCC(C1)N2CCc1ccccc1` (configuration not stated), the EC50 [1] was 51.2 µM (not active).

With `C=CCN(c1ccccc1OC)S(=O)(=O)c1ccc(Cl)c(C(=O)Nc2ccc(N3CCOCC3)cc2)c1` the IC50 (HEK293 [2]) was > 20 µM (inactive), the IC50 (HEK293 [3]) was 14.4 µM (inactive) and the IC50 (HEK293 [4]) was > 20 µM (inactive). The EC50 (HEK293 [5]) was 12 µM (active), the IC50 [6] was 14 µM (active) and the IC50 (HEK293 [7]) was > 20 µM (inactive). The IC50 [8] was 10.4 µM (active) and the IC50 (Tumor necrosis factor) was 13.2 µM (active).

For `O=C(Cn1c(=O)oc2cc(S(=O)(=O)N3CCCCCC3)ccc21)NC1CCCCC1`, the EC50 (Estrogen receptor) was 12.9 µM (not active).

With `Cc1ccccc1N(C)S(=O)(=O)c1nnc(NC(=O)c2ccco2)s1` the IC50 [9] was 67.8 µM (active) and the IC50 [10] was 25.9 µM (active).

With `Oc1ccc2ccccc2c1C1Nc2cccc3cccc(c23)N1` the IC50 (Protein Tat) was 41.7 µM (inconclusive), the CC50 [11] was > 40 µM (active) and the CC50 [12] was > 40 µM (active). The IC50 [13] was > 100 µM (active).

With `O=C(Nc1nc2ccccc2n1Cc1ccc(Cl)cc1)c1cccs1` the IC50 (HEK293 [4]) was > 20 µM (inactive), the IC50 [6] was > 20 µM (inactive) and the IC50 [8] was > 20 µM (inactive). For the same compound, the IC50 (Tumor necrosis factor) was > 20 µM (inactive).

For `COc1ccccc1-c1nnc(SC/C(O)=C(\C#N)c2nc3ccccc3[nH]2)n1C1CCCCC1`, the IC50 (Aminopeptidase N) was 52.2 µM (active).

With `CC(=O)NC(=S)Nc1ccc(NC(=S)NC(=O)/C=C/c2ccco2)cc1` the IC50 [9] was > 100 µM (inactive), the EC50 (Streptococcus) was 5.33 µM (active) and the EC50 [14] was 2.69 µM (active). The IC50 [10] was 36.7 µM (active).

For `O=C(c1cnc2n(c1=O)CCS2)N(C1CCCCC1)C1CCCCC1`, the IC50 (Aminopeptidase N) was 149 µM (active).

With `Cc1ccc(-n2c3nc(=O)[nH]c(=O)c-3cc3cc([N+](=O)[O-])ccc32)cc1C` the IC50 (Genome polyprotein) was 65.1 µM (active), the IC50 (Hexokinase HKDC1) was 6.47 µM (active) and the EC50 [15] was 10 µM (active). The CC50 (Vero) was 29.7 µM (active).

In the case of `C=CCSC1=Nc2sccc2C2=NC(=O)CN12`, the EC50 [16] is reported as 18.5 µM (active) and the EC50 [1] is reported as > 100 µM (not active).
